Measured values as given in US8247211B2, “Glycopeptide antibiotics” (American Cyanamid Company, priority 2001, dated 2012).
Converted amounts (≈) assume the structure as drawn. Values belong to the compound of their own block, whether it stands above or below them. Numbered stars: 1 amine (or outer) side, 2 acyl side, 3 side chain; on linkers, the order of the positions; unused ones are H or OH. Square brackets hold non-standard residues; d marks the D form. Peptide text beside a SMILES is read from it. * marks the point of attachment. ξ: configuration not given here. X1 = N=C1NCC(C(O)C(N[*:1])C(=O)[*:2])N1C1OC(CO)C(O)C(O)C1O; ξEnduracididine(βξ-OH,4'ξ) = N=C1NCC(C(O)C(N)C(=O)O)N1; X2 = OCC1OC(OC2C(CO)OC(*)C(O)C2O)C(O)C(O)C1O; Diphenylacetyl = O=C(C(c1ccccc1)c1ccccc1)*; ξPhe(βξ-Me) = CC(c1ccccc1)C(N)C(=O)O

Key:
Experiment in all cases: In vitro antibacterial evaluation: minimum inhibitory concentration (MIC), broth dilution method
Type in all cases: cell-based
[1] = test system: Escherichia coli
Description: (§1) The minimum inhibitory concentration (MIC), the lowest concentration of the antibiotic which inhibits growth of the test organism, is determined by the broth dilution method using Muller-Hinton II […] (Baltimore Biological Laboratories) following the recommendations of the National Committee for Clinical Laboratory Standards [Methods for dilution antimicrobial susceptibility tests for bacteria that grow aerobically, approved standard M7-A2, National Committee for Clinical Laboratory Standards, Villanova, Pa].
(§2) An inoculum level of 5×10^5 CFU/mL, and a range of antibiotic concentrations (64-0.06 μg/mL) is used. […] The test organisms include a spectrum of Gram-positive bacteria comprised of Staphylococcus sp., Streptococcus sp. and Enterococcus sp. These organisms include recent clinical isolates that are resistant to methicillin, penicillin and/or vancomycin.

[2] = test system: Enterococcus sp.
Description: as §1, §2

[3] = test system: Staphylococcus sp.; settings: for MIC Coagulase Negative Staphylococcus (GC 4549): strain GC 4549; for MIC Coagulase Negative Staphylococcus (ID-3941): strain ID-3941
Description: as §1, §2

[4] = test system: Streptococcus sp.
Description: as §1, §2

[5] = broth dilution, 18 hours at 35° C.

MIC Escherichia coli (GC 4559) ([1]; strain GC 4559): >64 µg/mL | MIC Escherichia coli (GC 4560) ([1]; strain GC 4560): 8 µg/mL (≈ 5.74 µM) | MIC Enterococcus faecalis (GC 2242) ([2]; Enterococcus faecalis (GC 2242), broth dilution, 18 hours at 35° C.): >64 µg/mL | MIC Enterococcus faecalis (ATCC 29212) ([2]; strain ATCC 29212): >64 µg/mL | MIC Enterococcus faecalis (GC 2242) ([2]; strain GC 2242): >64 µg/mL | MIC Enterococcus faecalis (GC 4552) ([2]; strain GC 4552): >64 µg/mL | MIC Staphylococcus aureus (ATCC 29213) [3, 5]: >64 µg/mL | MIC Staphylococcus aureus (GC 1131) [3, 5]: >64 µg/mL | MIC Staphylococcus aureus (GC 4535) [3, 5]: >64 µg/mL | MIC Staphylococcus aureus SMITH (GC 4536) [3, 5]: >64 µg/mL | MIC Coagulase Negative Staphylococcus (GC 4537) ([3]; strain GC 4537): >64 µg/mL | MIC Coagulase Negative Staphylococcus (GC 4538) ([3]; strain GC 4538): >64 µg/mL | MIC Coagulase Negative Staphylococcus (GC 4547) ([3]; strain GC 4547): >64 µg/mL | MIC Staphylococcus aureus-SMITH (GC 4536) ([3]; strain SMITH GC 4536, broth dilution, 18 hours at 35° C.): >64 µg/mL
Compound: CCCCCC(=O)OCC1OC(N2C(=N)NCC2C(O)C2NC(=O)C(C(O)C3CNC(=N)N3)NC(=O)C(Cc3ccc(OC4OC(CO)C(OC5OC(CO)C(O)C(O)C5O)C(O)C4O)cc3)NC(=O)C(C(C)c3ccccc3)NC(=O)CNC(=O)C(CO)NC2=O)C(O)C(O)C1O (stereo not shown) [Example 95]

MIC Enterococcus faecium (GC 4557) ([2]; strain GC 4557): 32 µg/mL (≈ 21.5 µM) | MIC Coagulase Negative Staphylococcus (GC 4549) [3]: 64 µg/mL (≈ 43 µM) | MIC Coagulase Negative Staphylococcus (GC 4549) [3, 5]: 64 µg/mL (≈ 43 µM) | MIC Coagulase Negative Staphylococcus (ID-3941) [3]: 64 µg/mL (≈ 43 µM) | MIC Coagulase Negative Staphylococcus (ID-3941) [3, 5]: 64 µg/mL (≈ 43 µM) | MIC Streptococcus agalactiae (GC 4564) ([4]; strain GC 4564): 32 µg/mL (≈ 21.5 µM) | MIC Streptococcus pneumoniae (GC 4565) ([4]; strain GC 4565): 16 µg/mL (≈ 10.7 µM) | MIC Streptococcus pyogenes (ID-3187) ([4]; strain ID-3187): 32 µg/mL (≈ 21.5 µM)
Compound: CC(c1ccccc1)C1NC(=O)CNC(=O)C(COC(=O)C(c2ccccc2)c2ccccc2)NC(=O)C(C(O)C2CNC(=N)N2C2OC(CO)C(O)C(O)C2O)NC(=O)C(C(O)C2CNC(=N)N2)NC(=O)C(Cc2ccc(OC3OC(CO)C(OC4OC(CO)C(O)C(O)C4O)C(O)C3O)cc2)NC1=O (stereo not drawn) [Example 96a, Cyclo[glycyl-β-methylphenylalanyl-O-[4-O-hexopyranosylhexopyranosyl)tyrosyl-3-(2-iminoimidazolidin-4-yl)seryl-3-(3-hexopyranosyl-2-iminoimidazolidin-4-yl)seryl-O-(diphenylacetyl)-seryl]] (cyclo(G[ξPhe(βξ-Me)]Y(X2)[ξEnduracididine(βξ-OH,4'ξ)][X1]S(Diphenylacetyl)); configuration not given here)
